# Assay results taken from patent publication US20230061858A1, “TREATMENT WITH SITE SPECIFIC HER2 ANTIBODY-DRUG CONJUGATES” (Pfizer Inc., priority 2019, published 2023).
# Where a SMILES comes first, the peptide text is derived from it. [ ]: non-standard residue; d: D form. The star is where a group is joined. Dolaproine = CO[C@@H]([C@@H]1CCCN1)[C@@H](C)C(=O)O; Dil = CC[C@H](C)[C@H](NC)[C@@H](CC(=O)O)OC; Doe = c1ccc(C[C@H](N*)c2nccs2)cc1; Aib = CC(C)(N)C(=O)O
# Test: Phase 1 pharmacokinetic assessment, Cycle 1 serum concentrations
# Assay type: in vivo, human
# Experimental: Pharmacokinetic assessments included quantifying the serum concentrations of T(kK183C+K290C)-vc0101 ADC (measured as conjugated payload), total antibody, and unconjugated payload using validated bioanalytical assays on blood samples collected before treatment and during the study. Specifically, total antibody concentrations were measured using ELISA method, T(kK183C+K290C)-vc0101 ADC concentrations were measured as conjugated payload using a hybrid LC-MS/MS method, and unconjugated payload concentrations will be measured using an LC-MS/MS method. For preliminary PK assessment, mean serum concentration-time profiles of T(kK183C+K290C)-vc0101 ADC were generated for each dose cohort; Noncompartmental PK parameters were estimated from Cycle 1 concentration-time data using nominal sampling time. For T(kK183C+K290C)-vc0101 ADC and total antibody, PK parameters including the maximum plasma concentration (Cmax), time to maximum plasma concentration (Tmax), and area under the plasma concentration versus time curve (AUCinf, AUCτ), clearance (CL), volume of distribution at steady state (Vss), terminal half-life (t1/2), and accumulation ratio (Rac) were calculated. For unconjugated payload, PK parameters including Cmax, Tmax, AUCinf, AUCτ, t1/2, and Rac, were calculated.
smiles,measurement,setting,value
"CC[C@H](C)[C@@H]([C@@H](CC(=O)N1CCC[C@H]1[C@H](OC)[C@@H](C)C(=O)N[C@@H](Cc1ccccc1)c1nccs1)OC)N(C)C(=O)[C@@H](NC(=O)C(C)(C)N)C(C)C [unconjugated payload, 2-methylalanyl-N-[(3R,4S,5S)-3-methoxy-1-{(2S)-2-[(1R,2R)-1-methoxy-2-methyl-3-oxo-3-{[(1S)-2-phenyl-1-(1,3-thiazol-2-yl)ethyl]amino}propyl]pyrrolidin-1-yl}-5-methyl-1-oxoheptan-4-yl]-N-methyl-L-valinamide] (H-[Aib]V[Dil][Dolaproine]-Doe)",exposure following IV administration of PF-06804103,"0.15-5.0 mg/kg, Cycle 1",Dose-dependent increases
same,Serum concentrations compared with ADC,"Cycle 1, after IV PF-06804103",substantially lower than those of ADC
